For assay [1], the target named is EGFR (human) (UniProt P00533). The following applies: mcf7.
Assay [2] has as its target EGFR (human) (UniProt P00533). As to conditions: a431.
Assay [3] deals with EGFR (human) (UniProt P00533). The following applies: a549.

IC50 data for 14 molecules are collected here from the Kinase Knowledgebase extract (Sharma et al. 2016).

Each structure is given as a SMILES string.

Chain of EGFR (human) (P00533 whole entry, looked up): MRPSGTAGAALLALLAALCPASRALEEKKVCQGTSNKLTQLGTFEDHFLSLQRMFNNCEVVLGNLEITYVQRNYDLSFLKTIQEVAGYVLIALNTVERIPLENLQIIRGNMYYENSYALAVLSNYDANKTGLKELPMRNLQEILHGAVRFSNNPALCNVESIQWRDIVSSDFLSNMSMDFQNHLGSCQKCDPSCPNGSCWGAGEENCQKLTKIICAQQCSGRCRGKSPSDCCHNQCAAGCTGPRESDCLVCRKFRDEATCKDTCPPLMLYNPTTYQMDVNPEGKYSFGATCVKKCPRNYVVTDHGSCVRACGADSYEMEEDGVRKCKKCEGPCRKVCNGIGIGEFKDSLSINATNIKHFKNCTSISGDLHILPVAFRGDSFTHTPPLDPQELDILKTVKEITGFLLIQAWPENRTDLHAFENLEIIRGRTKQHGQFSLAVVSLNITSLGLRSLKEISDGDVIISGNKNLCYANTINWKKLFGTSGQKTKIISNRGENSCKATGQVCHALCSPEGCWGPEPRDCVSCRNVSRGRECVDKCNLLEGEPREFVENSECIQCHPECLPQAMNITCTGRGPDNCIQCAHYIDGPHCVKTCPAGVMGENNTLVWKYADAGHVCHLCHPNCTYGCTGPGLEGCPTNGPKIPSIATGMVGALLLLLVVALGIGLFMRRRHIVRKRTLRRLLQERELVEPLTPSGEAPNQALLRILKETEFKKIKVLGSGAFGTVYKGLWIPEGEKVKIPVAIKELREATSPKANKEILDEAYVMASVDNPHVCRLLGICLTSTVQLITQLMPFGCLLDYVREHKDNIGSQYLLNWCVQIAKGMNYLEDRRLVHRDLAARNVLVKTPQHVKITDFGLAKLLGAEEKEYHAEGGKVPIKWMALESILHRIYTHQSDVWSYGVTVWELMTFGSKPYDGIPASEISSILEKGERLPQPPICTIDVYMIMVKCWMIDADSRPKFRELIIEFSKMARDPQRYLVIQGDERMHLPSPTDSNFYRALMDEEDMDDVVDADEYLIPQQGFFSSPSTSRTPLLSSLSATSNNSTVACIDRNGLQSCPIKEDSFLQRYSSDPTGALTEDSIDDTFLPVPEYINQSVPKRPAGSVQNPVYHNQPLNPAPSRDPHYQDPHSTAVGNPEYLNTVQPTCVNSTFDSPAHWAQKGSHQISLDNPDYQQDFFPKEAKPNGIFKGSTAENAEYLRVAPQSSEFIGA

As a reminder, the IC50 is the concentration that inhibits the measured activity by half. Consider `Brc1cccc(Nc2ncnc3ccc(NCc4ccc5c(c4)OCCCO5)cc23)c1`, for which the IC50 against EGFR (human) [1] was 7.31 µM; against EGFR (human) [2], 4.03 µM; against EGFR (human) [3], 22.6 µM.

As for `O=C(Nc1ccc2ncnc(Nc3cccc(Br)c3)c2c1)C1COc2ccccc2O1` (centres undefined), the IC50 on EGFR (human) [1] is 152 µM; against EGFR (human) [2], 65.3 µM; against EGFR (human) [3] it was 112 µM.

On to `O=C(Nc1ccc2ncnc(Nc3cccc(Cl)c3)c2c1)c1cccc2c1OCCO2`, for which the IC50 against EGFR (human) [1] is 153 µM; against EGFR (human) [2], 71.1 µM; against EGFR (human) [3], above 153 µM.

On EGFR (human) [2], `Brc1cccc(Nc2ncnc3cc4c(cc23)OCCO4)c1` gave an IC50 of 0.75 µM.

As to `O=C(Nc1ccc2ncnc(Nc3cccc(Cl)c3)c2c1)C1COc2ccccc2O1` (centres undefined), the IC50 against EGFR (human) [1] was 78 µM; against EGFR (human) [2], 29.7 µM; against EGFR (human) [3], 91.6 µM.

At EGFR (human) [2], `Cc1cccc(Nc2ncnc3cc4c(cc23)OCCO4)c1` had an IC50 of 0.67 µM.

Take `Brc1cccc(Nc2ncnc3ccc(NCc4ccc5c(c4)OCO5)cc23)c1`: the IC50 is 21.6 µM against EGFR (human) [1], 10.2 µM against EGFR (human) [2] and 103 µM against EGFR (human) [3].

In the case of `Brc1cccc(Nc2ncnc3ccc(NCc4ccc5c(c4)OCCO5)cc23)c1`, the IC50 against EGFR (human) [1] stood at 14.6 µM; against EGFR (human) [2], 17.1 µM; against EGFR (human) [3], 79.5 µM.

As for `O=C(Nc1ccc2ncnc(Nc3cccc(Br)c3)c2c1)c1cccc2c1OCCO2`, the half-inhibitory concentration (IC50) against EGFR (human) [1] was 92.8 µM; at EGFR (human) [2], 31.7 µM; against EGFR (human) [3], 131 µM.

`Fc1cc(Br)ccc1Nc1ncnc2cc3c(cc12)OCCO3` showed an IC50 on EGFR (human) [2] of 6.28 µM.

As for `Clc1cccc(Nc2ncnc3ccc(NCc4ccc5c(c4)OCCCO5)cc23)c1`, the results for the IC50 against EGFR (human) [1], against EGFR (human) [2] and on EGFR (human) [3] were 6.22 µM, 3.76 µM and 45.1 µM, respectively.

Regarding `FC(F)(F)c1cccc(Nc2ncnc3cc4c(cc23)OCCO4)c1`, the IC50 on EGFR (human) [2] worked out at 0.77 µM.

Consider `Clc1cccc(Nc2ncnc3ccc(NCc4ccc5c(c4)OCCCCO5)cc23)c1`, for which the figures for the IC50 against EGFR (human) [1], against EGFR (human) [2] and against EGFR (human) [3] were 31.9 µM, 19.9 µM and 67 µM, respectively.

As for `Brc1cccc(Nc2ncnc3ccc(NCc4ccc5c(c4)OCCCCO5)cc23)c1`, the IC50 against EGFR (human) [1] was 47.8 µM; on EGFR (human) [2] it was 22.4 µM; against EGFR (human) [3], above 149 µM.
